The record followed here is ChEMBL document CHEMBL1201862, “PubChem BioAssay data set” (2004).

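Tested at 5 concentrations; 48 h exposure; 96-well plates; endpoints linearly interpolated, else capped at highest concentration. The concentration for 50% growth inhibition is given as GI50.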 The source made the active and inactive calls. No stated cut-off is given here; in the data, active = GI50 up to about 1.1 µM and inactive = higher.

What all share (assay): NCI anticancer screen, dose series, 48 h
The subject of assay [1] is HCT-15.
For assay [2], the system named is Malme-3M.
In assay [3] the test system is UACC-62.
The subject of assay [4] is MCF7.
Assay [5] deals with OVCAR-8.
Assay [6] concerns SK-OV-3.
Assay [7] has as its system UO-31.
Assay [8] deals with NCI-H522.
Assay [9] concerns LXFL 529.
In assay [10] the test system is DU-145.
Assay [11] concerns IGROV-1.
Assay [12] has as its system SF-268.
Assay [13] concerns M14.
Assay [14] has as its system SW-620.
Assay [15] has as its system T47D.
For assay [16], the system named is HCC 2998.
Assay [17] has as its system OVCAR-5.
Assay [18] concerns SK-MEL-5.
The subject of assay [19] is SN12C.
The test system of assay [20] is NCI/ADR-RES.

As to `CN(C)CCNC(=O)c1cccc2nc3c(ccc4ccccc43)nc12`, the GI50 in assay [1] was 1.61 µM; in assay [2], 1.56 µM (inactive); in [3], 2.45 µM (inactive); in assay [4], 0.476 µM (active); in assay [5], 1.73 µM (inactive); in assay [6] it was 5.42 µM (inactive). Also, the GI50 in [7] was 3.38 µM (inactive); in assay [8] it was 4.22 µM (inactive); in assay [9], 2.51 µM (inactive); in [10], 4.85 µM (inactive); in assay [11], 2.9 µM (inactive); in assay [12], 0.675 µM (active). Also, the GI50 in assay [13] was 2.49 µM (inactive); in assay [14], 1.1 µM (active); in [15], 6.11 µM (inactive); in [16] it was 1.98 µM (inactive); in assay [17], 4.55 µM (inactive); in assay [18], 1.76 µM (inactive). Also, the GI50 in [19] was 2.48 µM (inactive).

For `COCC(=O)OC1CCn2c1nc1c2C(=O)C(C)=C(NC(C)=O)C1=O` (configuration not stated), the GI50 in assay [1] is 14.4 µM; in assay [2], 2.77 µM (inactive); in assay [3] it was 3.27 µM (inactive); in [4], 1.84 µM (inactive); in assay [5], 3.48 µM (inactive); in [6], 15.4 µM (inactive). Further, the GI50 in assay [7] is 12.6 µM (inactive); in assay [8] it was 4.57 µM (inactive); in assay [20] it was 4.49 µM (inactive); in assay [9], 3.35 µM (inactive); in assay [10], 15.3 µM (inactive); in assay [11] it was 14.5 µM (inactive). For the same compound, the GI50 in [12] was 6.73 µM (inactive); in [13], 11.1 µM (inactive); in [14], 7.4 µM (inactive); in assay [15], 0.787 µM (active); in assay [16], 13 µM (inactive); in assay [17], 8.57 µM (inactive). Besides, the GI50 in [18] was 13.5 µM (inactive); in assay [19], 7.26 µM (inactive).

As to `COc1cc2c(cc1OC)CC(=O)Nc1cc(OC)c(OC)cc1CC2`, the GI50 in [1] is 55 µM; in assay [2], 20.8 µM (inactive); in [3], 36.1 µM (inactive); in [5], 53.8 µM (inactive); in [6], 38.6 µM (inactive); in [7], 61.9 µM (inactive). For the same compound, the GI50 was 17.3 µM (inactive) in assay [8]; > 73.3 µM (inactive) in assay [9]; > 85.9 µM (inactive) in assay [11]; 80.9 µM (inactive) in assay [12]; 36.1 µM (inactive) in assay [13]; 47.9 µM (inactive) in assay [14]. Further, the GI50 was 97.1 µM (inactive) in assay [16], > 83.8 µM (inactive) in assay [17], 18.5 µM (inactive) in [18] and 45.9 µM (inactive) in assay [19].

With `COc1ccc(CN[C@H]2CCc3cc(OC)c(OC)c(OC)c3-c3ccc(SC)c(=O)cc32)c(OC)c1OC`, the GI50 was 0.0266 µM in assay [1]; 0.0484 µM (active) in assay [2]; 0.023 µM (active) in assay [3]; 0.0277 µM (active) in assay [5]; 0.0293 µM (active) in assay [6]; 0.132 µM (active) in assay [7]. For the same compound, the GI50 in assay [8] is 0.0216 µM (active); in assay [9] it was 0.0447 µM (active); in assay [11] it was 0.135 µM (active); in [12], 0.0366 µM (active); in assay [13] it was 0.0308 µM (active); in assay [14], 0.0416 µM (active). Also, the GI50 in assay [16] is 0.0202 µM (active); in assay [17], 0.0421 µM (active); in assay [18] it was 0.0326 µM (active); in [19] it was 0.0381 µM (active).

In the case of `CC(C)=CC1C[C@H](C2CC=C3C2(C)CCC2[C@@]3(C)C(=O)CC3[C@]2(C)C=CC(=O)[C@]3(C)CO)CO1` (some centres not stated), the GI50 in assay [1] was 14.4 µM; in [2] it was 11.5 µM (inactive); in assay [3], 11.8 µM (inactive); in assay [5], 4.55 µM (inactive); in [6], 16.6 µM (inactive); in assay [7] it was 18.6 µM (inactive). Moreover, the GI50 in assay [8] was 2.73 µM (inactive); in assay [9], 3.45 µM (inactive); in [11], 13.6 µM (inactive); in [12], 5.82 µM (inactive); in [13], 3.12 µM (inactive); in [14], 4.28 µM (inactive). Besides, the GI50 is 16.3 µM (inactive) in assay [16], 21 µM (inactive) in [17], 10 µM (inactive) in assay [18] and 20.3 µM (inactive) in [19].
